The record followed here is patent publication US7560482B2, “Inhibitors of plasmepsins” (The Johns Hopkins University, priority 2001, dated 2009).

Structures are written as SMILES. Where two headings read alike, the source gives them in different places.

The target in one assay is T1, human Cathepsin D (Homo sapiens, UniProt P07339).
T1 construct: purchased
The assay can be described thus: Cathepsin D inhibition assay, hydrolysis of chromogenic substrate. Type of assay: biochemical. As for the experimental part: (§1) The specific activity of plasmepsin II from Plasmodium falciparum (Plm II) cloned in and purified from Escherchia coli and commercially available human Cathepsin D were measured by following the hydrolysis of the chromogenic substrate Ala-Leu-Glu-Arg-Thr-nPhe-Phe-Ser-Phe-Pro-Thr-OH (California Peptide Research Inc., Napa, Calif.). The decrease in absorbance upon hydrolysis is monitored at 300 nm. Typical Plasmepsin II preparations hydrolyze chromogenic substrate at 4-5 s^−1 at 37° C. The inhibition assays were performed at 25° C. in 10 mM sodium formate, 2% DMSO, pH 4.0. These pH conditions mimic the conditions in the food vacuole of the parasite. […] Inhibition constants (Ki) for the inhibitors are obtained at the desired temperature and solvent conditions by measuring the rate of substrate hydrolysis at increasing amounts of inhibitors. Exemplary results from three compounds (KNI-10033, KNI-10030 and KNI-10006) are shown in FIG. 7A-C, and the results obtained with all KNI compounds tested are given in Table 1.

In assay [1] the test system is chloroquine-sensitive Plasmodium falciparum (NF54). The assay can be described thus: malaria-infected human red blood cell assay, [3H]hypoxanthine incorporation. The following applies: P. falciparum NF54, 48 h + 20 h incubation; read-out: IC50, killing of malaria parasite in infected red blood cell assay. It is filed as cell-based. As for the experimental part:
The ability of some KNI compounds to kill the malaria parasite was evaluated by measuring the IC50 in a malaria-infected human red blood cell assay. Activity was determined by measuring the incorporation of [^3H]hypoxanthine. Briefly, chloroquine-sensitive Plasmodium falciparum (NF54) were maintained in a 2.4% suspension of type O^+ human erythrocytes in RPMI 1640, supplemented with 25 mM HEPES, 27 mM NaHCO3, and 10% heat-inactivated human type O^+ serum, under 3% O2, 4% CO2, and 93% N2. 20 mM stock solutions of KNI-764 and KNI-727 and KNI-840 were prepared in DMSODMSO solutions were diluted 500 fold in medium, serially diluted in 0.2% DMSO in medium, then 100 μl aliquots were pipetted into microtiter plate wells. Provisional EC50 values were obtained in a survey of ten 5-fold dilutions yielding final concentrations (in quadruplicate) of 0.00001-20 μM. Plates included 8 wells of no drug controls (4 with and 4 without DMSO) and 4 wells in uninfected erythrocytes. […] The filters were washed four times with 3 ml water per sample spot, dried under a heat lamp, and counted in scintillation cocktail. Decays per minute values were downloaded and analyzed in order to yield the mean and standard deviation at each drug concentration. […]

The target in assay [2] is T2, plasmepsin II from Plasmodium falciparum (Plm II) (Plasmodium falciparum, UniProt P46925).
T2 construct: made in house; host or cells: Escherichia coli
The assay can be described thus: Plasmepsin II inhibition assay, hydrolysis of chromogenic substrate. The following applies: for Discrimination Factor: Fold Selectivity for Plasmepsin II over Cathepsin D: ratio of the Ki for Cathepsin D to the Ki for Plasmepsin II. Type of assay: biochemical. As for the experimental part: FIG. 7A-C. Inhibition of Plasmepsin II from Plasmodium falciparum by KNI-10033, KNI-10030 and KNI-10006 at 20° C. in 10 mM sodium citrate, 100 mM NaCl, 2% DMSO, pH 4.0. The inhibition constants are 3 nM, 11 nM and 0.5 rLM respectively.
as §1

Where [3] appears, read: 25° C., 10 mM sodium formate, 2% DMSO, pH 4.0, fit to competitive inhibition, read-out: Ki CatD.
[4] abbreviates: Table 2, read-out: Ki Cathepsin D.
The mark [5] stands for this setting: 25° C., 10 mM sodium formate, 2% DMSO, pH 4.0, fit to competitive inhibition, read-out: Ki Plm II.
The mark [6] stands for this setting: Table 2, read-out: Ki Plasmepsin II.

T1 sequence (P07339 65-412): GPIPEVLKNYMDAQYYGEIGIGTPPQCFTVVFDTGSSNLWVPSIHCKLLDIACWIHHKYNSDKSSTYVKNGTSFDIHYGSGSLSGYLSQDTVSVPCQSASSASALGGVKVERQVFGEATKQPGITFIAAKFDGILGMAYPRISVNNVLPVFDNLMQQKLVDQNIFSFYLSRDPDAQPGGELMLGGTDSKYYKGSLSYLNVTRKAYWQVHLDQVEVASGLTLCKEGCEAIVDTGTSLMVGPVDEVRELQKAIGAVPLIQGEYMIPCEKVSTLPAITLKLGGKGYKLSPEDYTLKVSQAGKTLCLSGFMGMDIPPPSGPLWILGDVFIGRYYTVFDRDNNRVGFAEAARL
T2 sequence (P46925 125-453): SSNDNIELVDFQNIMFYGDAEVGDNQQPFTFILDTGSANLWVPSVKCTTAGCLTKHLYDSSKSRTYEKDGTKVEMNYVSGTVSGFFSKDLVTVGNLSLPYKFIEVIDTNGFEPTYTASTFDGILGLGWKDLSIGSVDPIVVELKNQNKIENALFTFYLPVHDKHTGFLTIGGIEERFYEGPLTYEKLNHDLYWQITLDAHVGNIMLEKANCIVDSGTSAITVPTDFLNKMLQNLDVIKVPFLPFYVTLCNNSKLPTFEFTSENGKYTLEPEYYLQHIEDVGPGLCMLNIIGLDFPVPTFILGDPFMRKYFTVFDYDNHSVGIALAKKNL

With `Cc1ccccc1CNC(=O)[C@H]1N(C(=O)[C@@H](O)[C@H](Cc2ccccc2)NC(=O)c2cccc(O)c2C)CSC1(C)C` [KNI-764], the Ki at human Cathepsin D (setting [3]) turned out to be 201 ± 20 nM; on human Cathepsin D (setting [4]), 201 nM; in assay [2] (setting [5]), 30 ± 9 nM; in assay [2] (setting [6]), 30 nM. For the same compound, the IC50 in assay [1] is 10000 nM. The “inhibition constants against Plasmepsin II, in words” value in assay [2] was “nanomolar and subnanomolar range”. Also, the “Discrimination Factor: Fold Selectivity for Plasmepsin II over Cathepsin D” value in assay [2] is approximately 7.

Regarding `Cc1ccccc1CNC(=O)[C@H]1N(C(=O)[C@@H](O)[C@H](Cc2ccccc2)NC(=O)COc2c(C)cccc2C)CSC1(C)C` [KNI-840], the Ki is 80 ± 90 nM on human Cathepsin D (setting [3]); 80 nM at human Cathepsin D (setting [4]); 20 ± 10 nM in assay [2] (setting [5]); 20 nM in assay [2] (setting [6]); approximately 20 nM in assay [2] (read-out: Ki (Plasmepsin II), unit inferred). In addition, in assay [1], the IC50 turned out to be 10000 nM. Besides, in assay [2], the “inhibition constants against Plasmepsin II, in words” value was “nanomolar and subnanomolar range”. Moreover, the “discrimination factor / Cathepsin D selectivity” value in assay [2] (Plasmepsin II versus Cathepsin D, fold) was 4. Besides, the “Discrimination Factor: Fold Selectivity for Plasmepsin II over Cathepsin D” value in assay [2] stood at 4.

In general, Ki refers to a dissociation constant, usually derived from enzyme kinetics or from competition with a known ligand. As usually defined, the IC50 is the midpoint of a concentration-inhibition curve.
